These results are taken from ChEMBL document CHEMBL4387764, “Structure-activity relationship study of thiazolyl-hydroxamate derivatives as selective histone deacetylase 6 inhibitors” (Bioorg Med Chem, 2019).

A short description of series [1]: in vitro. The following applies: human, liver microsomes.
The nature of series [2]: in vitro. The settings on record: human, liver microsomes. The source holds these as a separate data set.
Series [3] in a line: in vitro. The following applies: CD-1, mouse, liver microsomes.
Series [4] in a line: in vitro. The settings on record: CD-1, mouse, liver microsomes. The source holds these as a separate data set.
Series [5] in a line: in vitro. The settings on record: CD-1, mouse, liver microsomes. This is another data set of the same source.
Series [6] can be described thus: in vitro. The following applies: human, liver microsomes. This is another data set of the same source.
Series [7] is described as follows: in vitro. The settings on record: human, liver microsomes. This is another data set of the same source.
Series [8] is described as follows: in vitro. The settings on record: human, liver microsomes. The source holds these as a separate data set.
A short description of series [9]: in vitro. The settings on record: CD-1, mouse, liver microsomes. This is another data set of the same source.
The nature of series [10]: in vitro. The following applies: CD-1, mouse, liver microsomes. The source holds these as a separate data set.
A short description of series [11]: in vitro. The following applies: CD-1, mouse, liver microsomes. The source holds these as a separate data set.
The nature of series [12]: in vitro. The following applies: human, liver microsomes. This is another data set of the same source.

For the molecule `O=C(CCc1csc(/C=C/c2ccc(F)cc2)n1)NO`, the share remaining at 0.5 h, 1 µM in “in vitro [1]” worked out at 94.6%; in the series “in vitro [3]”, 95.8%; in the series “in vitro [5]”, 25.2%; in the series “in vitro [6]”, 112%. Besides, the fraction remaining at 0.25 h, 1 µM in “in vitro [2]” was 103%; in the series “in vitro [11]” it was 68.6%. For the same molecule, the share remaining at 5 min, 1 µM in “in vitro [4]” is 99.8%; in “in vitro [12]”, 105%. Further, the amount remaining at 0 h, 1 µM in the series “in vitro [7]” is 106%; in the series “in vitro [8]” it was 100%; in the series “in vitro [9]”, 100%; in the series “in vitro [10]”, 107%.
